Peptide text beside a SMILES is read from it. Bounds are passed on as bounds.

This note sets out measurements from US7122360B1, “Polypeptides, polynucleotides and uses thereof” (University of Dundee, priority 1998, dated 2006).

In assay [1] the target is T1, MAPKAP-K1a (Rattus norvegicus, UniProt Q63531).
T1 construct: made in house; host or cells: human embryonic kidney 293 cells, TPA-stimulated
Kind of assay: Substrate phosphorylation kinetics with GST-MAPKAP-K1a. Type of assay: biochemical. As for the experimental part: (§1) FIG. 8. […] (A) Comparison of the substrate specificities of MSK1, MAPKAP-K1a and MAPKAP-K1b towards the indicated peptides and CREB. Phosphorylation and analysis was carried out as described in Materials and Methods. The standard errors for all reported kinetic constants were within <+20% (SEM), and the data is reported as mean values for 2 independent experiments. The Vmax values are reported as a percentage of the value obtained using Crosstide ([…], peptide 1 (SEQ ID NO:16)) as a substrate. The peptide […] (SEQ ID NO:18) corresponding to residues 126–136 of CREB is termed CREBtide. The serine residues shown in bold correspond to the phosphorylated serine residues on the peptides. […] (B) GST-MSK1 (solid bars), GST-MAPKAPK-1a (open bars), MAPKAP-K-1b (speckled bars) or GST-MAPKAP-K2 (diagonal bars) were assayed with the indicated substrates. […] The phosphorylation of CREB by MAPKAP-K2 shown in the figure is corrected to show only the contribution of Ser133 phosphorylation to the total incorporation of phosphate into CREB. […]
(§2) Phosphorylation of CREB and HSP27 by MSK1 and MAPKAP-K1a/b (see FIG. 8). MSK1 and MAPKAP-K1a expressed as GST fusion proteins were purified from TPA stimulated 293 cells (FIG. 3) and MAPKAP-K1b was purified from rabbit skeletal muscle (Sutherland et al., 1993). […] The ^32P-radioactivity incorporated was then determined by Cerenkov counting. […]

In assay [2] the target is T2, MAPKAP-K1b (Oryctolagus cuniculus, UniProt A0A5F9C4L9).
T2 construct: MAPKAP-K1b was purified from rabbit skeletal muscle (Sutherland et al., 1993); from tissue; host or cells: rabbit skeletal muscle
Put plainly: Substrate phosphorylation kinetics with MAPKAP-K1b. Type of assay: biochemical, rabbit. As for the experimental part:
as §1, §2

The target of assay [3] is MSK1 (Homo sapiens, UniProt O75582). Kind of assay: Substrate phosphorylation kinetics with GST-MSK1. It is filed as biochemical. The arrangement: generate a full length FLAG-MSK 1 construct in the pCMV5 mammalian expression; made in house; host or cells: human embryonic kidney 293 cells (TPA-stimulated before lysis). As for the experimental part:
FIG. 8. MSK1 phosphorylates CREB at Ser133. (A) Comparison of the substrate specificities of MSK1, MAPKAP-K1a and MAPKAP-K1b towards the indicated peptides and CREB. Phosphorylation and analysis was carried out as described in Materials and Methods. The standard errors for all reported kinetic constants were within <+20% (SEM), and the data is reported as mean values for 2 independent experiments. The Vmax values are reported as a percentage of the value obtained using Crosstide ([…], peptide 1 (SEQ ID NO:16)) as a substrate. The peptide […] (SEQ ID NO:18) corresponding to residues 126–136 of CREB is termed CREBtide. The serine residues shown in bold correspond to the phosphorylated serine residues on the peptides. […] 75% of the radioactivity applied to the column was recovered from the major ^32P-containing peptide at 13% acetonitrile (the remainder of the radioactivity eluted as numerous minor peaks). […]
Phosphorylation of CREB and HSP27 by MSK1 and MAPKAP-K1a/b (see FIG. 8). MSK1 and MAPKAP-K1a expressed as GST fusion proteins were purified from TPA stimulated 293 cells (FIG. 3) and MAPKAP-K1b was purified from rabbit skeletal muscle (Sutherland et al., 1993). […] The ^32P-radioactivity incorporated was then determined by Cerenkov counting. […] The supernatant, containing 95% of the ^32P-radioactivity, was chromatographed on a Vydac C18 column as described in the legend to FIG. 8. […]

In assay [4] the test system is MSK1. Put plainly: Activation of transfected Flag-MSK1 in 293 cells. Conditions: stimulation with the agonist. It is filed as cell-based, human. Here is the method:
FIG. 6. Effect of mutation of MSK1 on activation by TPA and UV in 293 cells. 293 cells were transiently transfected with DNA constructs expressing Flag epitope tagged wild type MSK1, N-terminal (NT) “kinase dead” MSK1 and C-terminal (CT) “kinase dead” MSK1. […] The cells were lysed and the MSK1 was immunoprecipitated from the lysates and assayed with Crosstide.
Transfection of MSK1 into 293 cells. 293 cells were cultured on 10 cm diameter dishes and transfected with the pCMV5 vector encoding the Flag epitope tagged MSK1 constructs using a modified calcium phosphate method (Alessi et al., 1996b). 24 h post-transfection, the cells were deprived of serum for 16 h, stimulated with TPA or exposed to UV radiation, the cells were then lysed in 1 ml of ice cold Buffer A, centrifuged at 13,000×g for 5 min, and the Flag tagged MSK1 protein immunoprecipitated from aliquots of lysate (containing 25 μg protein) using 2 μg of FLAG antibody coupled to 5 (1 of Protein G-Sepharose.
Immunoprecipitates were incubated, washed and assayed for MSK1 activity as described above.

Assay [5] has as its system MAPKAP-K1a. Put plainly: Activation of overexpressed MAPKAP-K1a in 293 cells. Conditions: TPA stimulation, data not shown. Type of assay: cell-based, human. The source says: FIG. 7. MSK1 is mainly localised in the nucleus of cells and MAPKAP-K1a in the cytosol. […] Data is from three independent experiments. For MSK1 controls n=9, 9 and 14; for TPA n+10, 11 and 15. For MAPKAP-K1a controls total n=22; for TPA total n=9 (excluding cells with extensive clumps of immunoreactive material in the cytoplasm). Bars represent standard error of the mean calculated according to Cochran (1953). (C) Selected samples for MSK1 (C, unstimulated and D, TPA) and for MAPKAP-K1a (E, unstimulated) are shown to illustrate structures and labelling distributions. Bar is 500 nm.
MSK1 is localised in nuclei and MAPKAP-K1a in the cytoplasm. The subcellular location of wild type MSK1 that was overexpressed in 293 cells was investigated by quantitative immunoelectron microscopy (FIG. 7). MSK1 was largely located in the nucleus of unstimulated cells. The density of MSK1 in the nuclear compartment was 12 to 30-fold higher than in the cytoplasm (FIGS. 7A and 7C). […] Consistent with this observation MAPKAP-K1a, when overexpressed in cells, was largely localised in the cytoplasm (FIG. 7B). Moreover, no significant translocation of MAPKAP-K1a to the nucleus was observed following TPA stimulation of cells (FIGS. 7B and 7E) which induces 100-fold activation of this kinase (data not shown).

Assay [6] concerns MAPKAP-K1. Kind of assay: NGF-induced activation of MAPKAP-K1 in PC12 cells.

MSK1 (Homo sapiens, UniProt O75582), sequence (O75582 whole entry): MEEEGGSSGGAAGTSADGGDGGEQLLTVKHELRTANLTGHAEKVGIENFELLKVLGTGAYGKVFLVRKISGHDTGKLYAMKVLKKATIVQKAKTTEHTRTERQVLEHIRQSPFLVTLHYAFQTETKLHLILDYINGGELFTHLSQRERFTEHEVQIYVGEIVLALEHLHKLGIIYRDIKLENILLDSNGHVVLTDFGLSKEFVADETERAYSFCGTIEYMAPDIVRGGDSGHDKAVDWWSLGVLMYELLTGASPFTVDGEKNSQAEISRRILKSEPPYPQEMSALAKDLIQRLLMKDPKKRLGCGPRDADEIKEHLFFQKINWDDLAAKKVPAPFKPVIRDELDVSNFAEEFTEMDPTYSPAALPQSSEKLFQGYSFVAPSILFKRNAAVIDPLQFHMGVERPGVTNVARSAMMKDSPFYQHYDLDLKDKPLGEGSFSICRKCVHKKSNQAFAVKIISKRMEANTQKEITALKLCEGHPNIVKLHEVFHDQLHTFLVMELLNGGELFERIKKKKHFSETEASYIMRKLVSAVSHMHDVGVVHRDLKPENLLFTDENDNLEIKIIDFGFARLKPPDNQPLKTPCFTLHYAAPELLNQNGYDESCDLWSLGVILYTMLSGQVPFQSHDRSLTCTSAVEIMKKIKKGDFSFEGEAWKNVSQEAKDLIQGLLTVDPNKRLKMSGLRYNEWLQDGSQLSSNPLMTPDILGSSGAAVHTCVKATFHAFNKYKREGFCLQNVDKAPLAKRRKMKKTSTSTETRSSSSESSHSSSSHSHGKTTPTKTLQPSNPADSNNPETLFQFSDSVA
T2 sequence (A0A5F9C4L9 1-740): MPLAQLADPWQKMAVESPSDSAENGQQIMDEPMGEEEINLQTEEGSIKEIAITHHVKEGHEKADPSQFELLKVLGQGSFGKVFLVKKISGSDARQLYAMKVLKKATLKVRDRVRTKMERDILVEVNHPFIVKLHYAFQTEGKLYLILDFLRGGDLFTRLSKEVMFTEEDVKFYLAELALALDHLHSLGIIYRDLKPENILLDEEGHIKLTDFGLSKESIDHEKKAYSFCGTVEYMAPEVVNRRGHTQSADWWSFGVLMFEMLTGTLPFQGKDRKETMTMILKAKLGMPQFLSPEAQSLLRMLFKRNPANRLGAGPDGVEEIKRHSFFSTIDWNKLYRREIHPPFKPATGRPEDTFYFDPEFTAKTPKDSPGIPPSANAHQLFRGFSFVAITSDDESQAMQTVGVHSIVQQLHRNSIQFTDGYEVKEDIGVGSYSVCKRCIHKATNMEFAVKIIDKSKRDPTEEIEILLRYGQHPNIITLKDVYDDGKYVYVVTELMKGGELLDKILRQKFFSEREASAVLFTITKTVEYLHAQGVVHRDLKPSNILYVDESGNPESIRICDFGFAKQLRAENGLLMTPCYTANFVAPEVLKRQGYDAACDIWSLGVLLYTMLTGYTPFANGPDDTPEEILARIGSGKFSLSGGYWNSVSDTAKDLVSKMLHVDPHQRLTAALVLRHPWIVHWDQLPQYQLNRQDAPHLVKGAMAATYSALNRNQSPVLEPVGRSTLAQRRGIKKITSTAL
T1 sequence (Q63531 whole entry): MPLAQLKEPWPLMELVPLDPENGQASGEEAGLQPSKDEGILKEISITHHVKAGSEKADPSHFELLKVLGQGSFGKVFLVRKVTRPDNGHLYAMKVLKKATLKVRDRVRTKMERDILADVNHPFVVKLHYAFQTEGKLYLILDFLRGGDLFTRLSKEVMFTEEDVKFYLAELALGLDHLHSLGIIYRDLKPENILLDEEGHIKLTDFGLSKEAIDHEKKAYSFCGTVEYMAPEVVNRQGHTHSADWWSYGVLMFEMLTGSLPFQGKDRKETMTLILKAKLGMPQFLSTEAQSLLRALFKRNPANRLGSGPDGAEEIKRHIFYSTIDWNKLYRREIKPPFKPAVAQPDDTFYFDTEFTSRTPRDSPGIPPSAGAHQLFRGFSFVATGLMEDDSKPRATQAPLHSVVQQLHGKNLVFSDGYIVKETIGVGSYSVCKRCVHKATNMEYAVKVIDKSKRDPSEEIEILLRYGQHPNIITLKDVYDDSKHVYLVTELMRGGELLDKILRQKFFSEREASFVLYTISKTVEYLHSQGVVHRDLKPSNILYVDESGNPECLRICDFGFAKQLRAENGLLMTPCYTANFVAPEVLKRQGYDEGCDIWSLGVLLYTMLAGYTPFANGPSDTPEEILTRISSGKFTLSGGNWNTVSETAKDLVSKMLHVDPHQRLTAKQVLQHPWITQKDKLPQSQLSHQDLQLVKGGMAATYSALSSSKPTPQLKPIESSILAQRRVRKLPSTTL

Turning to `CC(C)C[C@H](NC(=O)[C@@H](NC(=O)[C@H](CCCNC(=N)N)NC(=O)[C@H](CC(N)=O)NC(=O)[C@H](CCCNC(=N)N)NC(=O)[C@H](CCCCN)NC(=O)[C@@H](N)CCCCN)[C@@H](C)O)C(=O)N[C@@H](CO)C(=O)N[C@H](C(=O)N[C@@H](C)C(=O)O)C(C)C` (H-KKRNRTLSVA-OH), in assay [1], the “Km for phosphorylation by MAPKAP-K1a” value is “almost identical Km and Vmax values as for Crosstide”. The “Km for phosphorylation by MAPKAP-K1b” value in assay [2] was “almost identical Km and Vmax values as for Crosstide”.
Take `CC[C@H](C)[C@H](NC(=O)[C@@H](N)CCC(=O)O)C(=O)N[C@@H](CC(C)C)C(=O)N[C@@H](CO)C(=O)N[C@@H](CCCNC(=N)N)C(=O)N[C@@H](CCCNC(=N)N)C(=O)N1CCC[C@H]1C(=O)N[C@@H](CO)C(=O)N[C@@H](Cc1ccc(O)cc1)C(=O)N[C@@H](CCCNC(=N)N)C(=O)N[C@@H](CCCCN)C(=O)O` [CREBtide] (H-EILSRRPSYRK-OH): the Km (usually the substrate concentration at which the rate is half of its maximum) in assay [3] is < 0.1 µM.
For the compound `C[C@H](NC(=O)[C@H](Cc1ccccc1)NC(=O)[C@H](CO)NC(=O)[C@H](CO)NC(=O)[C@@H](NC(=O)[C@H](CCCNC(=N)N)NC(=O)[C@@H]1CCCN1C(=O)[C@H](CCCNC(=N)N)NC(=O)CN)[C@@H](C)O)C(=O)N[C@@H](CCC(=O)O)C(=O)NCC(=O)O` [Crosstide] (H-GRPRTSSFAEG-OH), the Km in assay [1], in assay [2] and in assay [3] was 2 to 3 µM each time.
For `CCCCCCCCCCCCCC(=O)O[C@@H]1[C@@H](C)[C@@]2(O)[C@@H](C=C(CO)C[C@]3(O)C(=O)C(C)=C[C@@H]23)[C@@H]2C(C)(C)[C@]12OC(C)=O` [TPA, 12-O-tetradecanoylphorbol 13-acetate], the “activation of transfected wild type MSK1” value in assay [4] was 200 fold. The “activation of overexpressed MAPKAP-K1a” value in assay [5] came to 100 fold.
For the compound “NGF: nerve growth factor used as cell stimulus”, the “activation of MAPKAP-K1 by NGF” value in assay [6] was “five-fold”.
